From ChEMBL document CHEMBL1201862, “PubChem BioAssay data set” (2004)
Activity calls are given as the source filed them.

How the values were obtained:
[1] = target: T1, Adenosylmethionine-8-amino-7-oxononanoate aminotransferase (Mycobacterium tuberculosis, UniProt P9WQ81); assay: Mycobacterium tuberculosis BioA enzyme inhibitor Measured in Biochemical System Using Plate Reader - 2163-02_Inhibitor_Dose_CherryPick_Activity.; format: functional, Mycobacterium tuberculosis UT205
T1 sequence (P9WQ81 whole entry): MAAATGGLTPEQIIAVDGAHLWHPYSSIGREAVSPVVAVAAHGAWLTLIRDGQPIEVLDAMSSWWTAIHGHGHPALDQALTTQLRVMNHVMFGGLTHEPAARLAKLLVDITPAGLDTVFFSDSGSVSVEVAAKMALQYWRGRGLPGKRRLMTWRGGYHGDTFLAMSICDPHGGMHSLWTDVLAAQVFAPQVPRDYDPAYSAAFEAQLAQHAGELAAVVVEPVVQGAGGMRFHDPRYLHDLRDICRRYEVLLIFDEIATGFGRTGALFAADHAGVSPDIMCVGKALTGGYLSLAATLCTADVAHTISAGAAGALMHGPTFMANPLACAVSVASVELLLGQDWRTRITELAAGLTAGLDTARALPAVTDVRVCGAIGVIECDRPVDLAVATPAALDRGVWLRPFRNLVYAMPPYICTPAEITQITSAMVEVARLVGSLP

[2] = target: Beta-galactosidase (Escherichia coli, UniProt Q8VNN2); assay: PubChem AID 485352; format: functional
Beta-galactosidase, sequence (Q8VNN2 whole entry): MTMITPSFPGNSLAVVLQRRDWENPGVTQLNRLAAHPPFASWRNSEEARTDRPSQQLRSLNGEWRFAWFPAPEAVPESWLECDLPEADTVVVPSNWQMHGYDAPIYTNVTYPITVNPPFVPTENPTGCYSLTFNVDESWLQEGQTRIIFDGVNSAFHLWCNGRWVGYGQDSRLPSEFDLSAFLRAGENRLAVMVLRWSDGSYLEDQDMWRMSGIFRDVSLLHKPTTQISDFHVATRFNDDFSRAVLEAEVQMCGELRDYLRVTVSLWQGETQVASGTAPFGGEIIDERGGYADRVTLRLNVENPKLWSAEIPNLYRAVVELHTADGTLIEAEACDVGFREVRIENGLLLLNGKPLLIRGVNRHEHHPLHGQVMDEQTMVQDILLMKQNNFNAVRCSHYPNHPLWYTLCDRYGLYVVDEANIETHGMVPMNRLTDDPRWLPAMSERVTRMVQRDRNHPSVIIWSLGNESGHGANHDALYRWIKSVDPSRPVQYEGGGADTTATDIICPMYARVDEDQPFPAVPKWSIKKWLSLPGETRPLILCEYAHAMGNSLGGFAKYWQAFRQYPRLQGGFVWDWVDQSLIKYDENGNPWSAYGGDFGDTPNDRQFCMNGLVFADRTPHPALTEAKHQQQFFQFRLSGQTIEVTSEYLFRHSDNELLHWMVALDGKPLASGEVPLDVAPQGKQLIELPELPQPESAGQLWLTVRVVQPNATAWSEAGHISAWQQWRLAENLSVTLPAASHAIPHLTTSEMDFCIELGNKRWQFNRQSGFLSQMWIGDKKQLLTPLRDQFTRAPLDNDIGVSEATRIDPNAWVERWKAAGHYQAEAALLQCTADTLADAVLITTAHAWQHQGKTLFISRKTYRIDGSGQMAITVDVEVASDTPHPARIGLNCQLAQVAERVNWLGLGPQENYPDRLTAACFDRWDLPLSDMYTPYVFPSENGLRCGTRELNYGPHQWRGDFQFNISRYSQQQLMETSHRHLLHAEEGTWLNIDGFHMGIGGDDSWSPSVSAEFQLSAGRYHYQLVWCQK

[3] = target: T2, Type-1 angiotensin II receptor (Homo sapiens, UniProt P30556); assay: antagonism of angiotensin II type 1 receptor – cell-based, uHTS hits, selectivity assay for APJ receptor antagonist project, dose response (AID 463214); format: functional;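 also: antagonist potency against angiotensin II stimulated AT1 response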
T2 sequence (P30556 whole entry): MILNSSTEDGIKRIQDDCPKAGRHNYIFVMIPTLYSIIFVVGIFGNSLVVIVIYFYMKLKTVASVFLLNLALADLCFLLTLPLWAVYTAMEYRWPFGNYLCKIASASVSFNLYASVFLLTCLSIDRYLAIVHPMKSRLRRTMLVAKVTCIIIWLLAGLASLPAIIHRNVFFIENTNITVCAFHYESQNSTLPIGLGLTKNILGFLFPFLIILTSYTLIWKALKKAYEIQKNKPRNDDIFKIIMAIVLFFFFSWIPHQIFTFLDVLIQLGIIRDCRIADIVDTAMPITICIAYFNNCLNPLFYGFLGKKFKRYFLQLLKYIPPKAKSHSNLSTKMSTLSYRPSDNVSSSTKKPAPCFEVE

[4] = target: T3, Nuclear receptor subfamily 0 group B member 1 (Homo sapiens, UniProt P51843); format: functional, cell-based;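 also: HEK293T cells transfected with SF-1 and DAX-1 plus StAR promoter luciferase reporter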
T3 sequence (P51843 whole entry): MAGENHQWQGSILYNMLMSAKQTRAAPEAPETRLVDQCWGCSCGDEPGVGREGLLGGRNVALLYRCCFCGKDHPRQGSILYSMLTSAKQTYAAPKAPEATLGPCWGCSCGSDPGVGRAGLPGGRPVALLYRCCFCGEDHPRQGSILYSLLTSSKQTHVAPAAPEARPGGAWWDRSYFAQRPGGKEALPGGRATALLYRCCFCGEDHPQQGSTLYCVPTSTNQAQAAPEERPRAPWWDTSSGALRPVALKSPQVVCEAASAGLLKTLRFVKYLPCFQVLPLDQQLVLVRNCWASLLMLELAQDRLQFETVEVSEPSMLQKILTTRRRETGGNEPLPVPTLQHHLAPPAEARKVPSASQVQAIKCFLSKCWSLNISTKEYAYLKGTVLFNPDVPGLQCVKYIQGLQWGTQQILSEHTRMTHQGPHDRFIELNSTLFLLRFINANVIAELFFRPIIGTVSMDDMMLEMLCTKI

[5] = cells; format: functional, cell-based
[6] = target: T4, Small ubiquitin-related modifier 1 (Homo sapiens, UniProt P63165); assay: SUMO1 protein-protein binding blockers, potency – biochemical, FRET, dose response (AID 624383); format: functional; details: read-out: IC50_Mean
T4 sequence (P63165 whole entry): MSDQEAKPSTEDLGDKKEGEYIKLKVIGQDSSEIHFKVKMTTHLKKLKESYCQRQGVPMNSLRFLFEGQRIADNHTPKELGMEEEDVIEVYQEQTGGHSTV

[7] = target: T4, Small ubiquitin-related modifier 1; assay: SUMO1 protein interaction blockers, potency – biochemical, fluorescence polarization, uHTS hits, dose response (AID 624382); format: functional; details: read-out: IC50_Mean
[8] = system: Streptococcus sp. 'group A'; assay: Streptococcus pyogenes SK(-)GAS viability under kanamycin – luminescence, BacTiterGlo, confirmation, counter-screen for streptokinase expression inhibitor project, dose response (AID 1900); format: functional, organism-based
[9] = target: T5, Streptokinase A (Streptococcus pyogenes serotype M1, UniProt P10520); assay: viability-normalized secreted streptokinase activity reduction – plasminogen activation absorbance, OD405, dose response (AID 1914); format: functional, Streptococcus pyogenes M1 GAS;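 also: secreted streptokinase activity via plasminogen activation per viability signal from cell pellet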
T5 sequence (P10520 whole entry): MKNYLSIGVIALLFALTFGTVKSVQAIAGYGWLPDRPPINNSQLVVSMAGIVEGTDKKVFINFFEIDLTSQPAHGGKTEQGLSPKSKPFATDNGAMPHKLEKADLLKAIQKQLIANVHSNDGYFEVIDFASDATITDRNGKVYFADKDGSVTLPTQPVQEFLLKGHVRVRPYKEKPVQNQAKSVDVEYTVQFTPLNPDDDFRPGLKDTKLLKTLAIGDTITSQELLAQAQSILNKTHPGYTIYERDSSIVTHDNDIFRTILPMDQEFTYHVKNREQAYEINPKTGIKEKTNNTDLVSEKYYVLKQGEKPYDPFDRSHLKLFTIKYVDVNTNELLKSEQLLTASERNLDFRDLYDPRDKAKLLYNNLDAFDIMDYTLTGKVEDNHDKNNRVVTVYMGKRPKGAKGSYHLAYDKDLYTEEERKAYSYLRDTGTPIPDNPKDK

[10] = system: Streptococcus; assay: GAS UMAA2166 growth inhibition – luminescence, BacTiterGlo, counter-screen for streptokinase expression inhibitor project, dose response (AID 1915); format: functional, organism-based;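 also: potency for reduction of bacterial viability or growth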
[11] = target: Mu-type opioid receptor (Homo sapiens, UniProt P35372); format: functional, cell-based;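 also: U2OS cells with beta-arrestin recruitment to OPRM1 by beta-gal complementation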
Mu-type opioid receptor, sequence (P35372 whole entry): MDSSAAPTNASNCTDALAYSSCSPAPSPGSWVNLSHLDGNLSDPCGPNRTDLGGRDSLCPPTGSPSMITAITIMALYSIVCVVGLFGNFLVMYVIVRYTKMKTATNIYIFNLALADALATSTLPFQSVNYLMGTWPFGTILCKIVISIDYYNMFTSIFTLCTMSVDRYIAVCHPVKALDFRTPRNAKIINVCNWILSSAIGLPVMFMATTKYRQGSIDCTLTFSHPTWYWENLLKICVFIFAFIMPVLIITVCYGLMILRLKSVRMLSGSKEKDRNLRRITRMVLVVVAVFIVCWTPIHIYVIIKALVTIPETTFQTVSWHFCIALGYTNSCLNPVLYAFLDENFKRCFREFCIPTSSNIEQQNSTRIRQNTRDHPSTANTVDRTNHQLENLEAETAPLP

[12] = target: 5-hydroxytryptamine receptor 2A (Mus musculus, UniProt P35363); format: functional, cell-based;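 also: CHO-K1 cells with tagged receptor and beta-arrestin; agonist potency measured as compound-induced activation of the receptor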
5-hydroxytryptamine receptor 2A, sequence (P35363 whole entry): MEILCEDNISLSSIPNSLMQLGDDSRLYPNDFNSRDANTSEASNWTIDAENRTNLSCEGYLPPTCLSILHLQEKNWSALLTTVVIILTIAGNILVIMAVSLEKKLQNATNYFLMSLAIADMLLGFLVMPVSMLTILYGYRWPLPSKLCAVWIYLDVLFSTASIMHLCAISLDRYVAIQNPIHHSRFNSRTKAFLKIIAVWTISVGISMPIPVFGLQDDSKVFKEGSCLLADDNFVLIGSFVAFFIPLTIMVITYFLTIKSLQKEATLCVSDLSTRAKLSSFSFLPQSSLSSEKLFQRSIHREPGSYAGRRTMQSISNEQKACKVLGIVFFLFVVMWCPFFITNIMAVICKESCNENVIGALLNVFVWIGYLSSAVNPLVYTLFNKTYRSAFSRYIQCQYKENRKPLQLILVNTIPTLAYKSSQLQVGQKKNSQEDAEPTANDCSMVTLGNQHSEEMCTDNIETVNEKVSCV

[13] = target: T6, Long-chain-fatty-acid--AMP ligase FadD28 (Mycobacterium tuberculosis, UniProt P9WQ59); assay: Fluorescence polarization aasay to screen for inhibitors that compete for the binding of FadD28 to a bisubstrate Measured in Biochemical System Using Plate Reader - 2147-01_Inhibitor_Dose_CherryPick_Activity.; format: functional, Mycobacterium tuberculosis H37Rv
T6 sequence (P9WQ59 whole entry): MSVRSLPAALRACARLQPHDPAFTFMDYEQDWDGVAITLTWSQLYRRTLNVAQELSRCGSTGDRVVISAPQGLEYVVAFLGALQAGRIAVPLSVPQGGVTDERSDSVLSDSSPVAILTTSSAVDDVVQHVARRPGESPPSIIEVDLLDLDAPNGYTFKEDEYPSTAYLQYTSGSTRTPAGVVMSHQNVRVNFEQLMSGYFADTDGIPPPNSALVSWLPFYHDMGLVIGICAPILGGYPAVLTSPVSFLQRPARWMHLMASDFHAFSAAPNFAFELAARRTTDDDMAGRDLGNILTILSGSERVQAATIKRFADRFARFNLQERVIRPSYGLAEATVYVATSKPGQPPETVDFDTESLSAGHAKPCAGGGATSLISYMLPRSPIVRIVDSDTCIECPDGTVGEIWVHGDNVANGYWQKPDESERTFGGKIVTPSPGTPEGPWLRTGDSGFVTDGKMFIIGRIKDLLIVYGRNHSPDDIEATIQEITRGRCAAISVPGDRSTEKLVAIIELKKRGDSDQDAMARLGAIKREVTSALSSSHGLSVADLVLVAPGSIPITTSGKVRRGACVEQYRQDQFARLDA

[14] = target: T7, Beta-lactamase (Pseudomonas aeruginosa, UniProt Q79MP6); assay: […] counterscreen for selective VIM-2 inhibitors: dose response biochemical high throughput screening assay to identify inhibitors of IMP-1 metallo-beta-lactamase.
T7 sequence (Q79MP6 whole entry): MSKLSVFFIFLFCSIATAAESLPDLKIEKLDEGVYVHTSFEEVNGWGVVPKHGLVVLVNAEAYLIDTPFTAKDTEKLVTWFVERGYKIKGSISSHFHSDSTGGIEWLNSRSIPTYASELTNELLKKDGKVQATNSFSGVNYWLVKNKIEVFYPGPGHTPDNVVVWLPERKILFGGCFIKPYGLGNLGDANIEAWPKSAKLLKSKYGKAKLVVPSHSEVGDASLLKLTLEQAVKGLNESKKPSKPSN

[15] = target: T7, Beta-lactamase; assay: inhibition of IMP-1 beta-lactamase activity – biochemical, epi-absorbance, selectivity assay for VIM-2 inhibitor project, dose response (AID 1920)
[16] = target: Beta-lactamase (Salmonella choleraesuis (strain SC-B67), UniProt Q5J463); assay: Epi-absorbance-based counterscreen for selective VIM-2 inhibitors: dose response biochemical high throughput screening assay to identify inhibitors of TEM-1 serine-beta-lactamase.
Beta-lactamase (Salmonella choleraesuis (strain SC-B67), UniProt Q5J463), sequence (Q5J463 whole entry): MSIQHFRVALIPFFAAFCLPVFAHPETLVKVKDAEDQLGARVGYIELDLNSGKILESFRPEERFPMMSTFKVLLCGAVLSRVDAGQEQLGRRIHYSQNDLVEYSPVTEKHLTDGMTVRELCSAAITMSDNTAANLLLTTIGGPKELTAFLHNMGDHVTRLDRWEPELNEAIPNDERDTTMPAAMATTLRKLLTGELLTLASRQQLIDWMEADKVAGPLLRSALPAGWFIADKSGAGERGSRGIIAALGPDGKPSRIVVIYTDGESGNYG

COc1ccc2c(c1)c(C(=O)CN1CCC3(CC1)OCCO3)c(C)n2Cc1ccccc1
AC50 [1]: 3.41 µM (active)

Cn1nnc(NC(=S)NC(=O)c2cccc3ccccc23)n1
EC50 [2]: > 40 µM (inactive) | IC50 [3]: > 40 µM (not active)

O=C(Nc1ccccc1Cl)NC1CCCCCCC1
IC50 [4]: > 67.5 µM (inactive) | IC50 [5]: > 67.5 µM (inactive)

COc1ccc(Cl)cc1Nc1nc(-c2sc(NC(=O)CC(C)C)nc2C)cs1
IC50 [6]: 14.8 µM (active) | IC50 [7]: > 66.6 µM (inactive)

Cn1c(O)c(N=Nc2nc(-c3ccccc3)cs2)c2ccccc21
EC50 [2]: > 40 µM (inactive) | IC50 [3]: > 40 µM (not active) | EC50 [8]: 3.21 µM (active) | EC50 [9]: 7.09 µM (active) | EC50 [10]: > 150 µM (not active)

Cc1ccc(CN2CCN(c3ncccn3)CC2)c(C)c1
EC50 [11]: 92.4 µM (inactive) | EC50 [12]: 0.337 µM (active)

CCCC(=O)C1=C(c2ccccc2)C(C#N)(C#N)C(C#N)=C1N
AC50 [13]: 32 µM (inactive)

Cc1cc(OCC(=O)N2CCC[C@@H]2C(=O)O)c2c(C)c(C)c(=O)oc2c1
IC50 [14]: > 59.6 µM (inactive) | IC50 [15]: > 59.6 µM (inactive) | IC50 [16]: > 59.6 µM (inactive)

Cc1c(OCC(=O)N2CCC[C@@H]2C(=O)O)ccc2c3c(c(=O)oc12)CCC3
IC50 [14]: > 59.6 µM (inactive) | IC50 [15]: > 59.6 µM (inactive) | IC50 [16]: > 59.6 µM (inactive)
